The values that follow come from publication PMC6072017, “Reversible covalent direct thrombin inhibitors” (PLoS ONE, 2018).

One data set has as its target Trypsin. The data set can be described thus: Enzyme inhibition assay, chromogenic substrate S-2765. The format is biochemical. As to conditions: 10 min preincubation, 3 nM enzyme. The method, then:
Final reaction volumes were 100 μL.
For FXIIa, the buffer also contained 50 mM imidazole. […] The buffer for FIXa (50 nM final concentration) was 50 mM Tris, 100 mM NaCl, 5 mM CaCl2, and 30% ethylene glycol.

In data set [1] the test system is thrombin generation in human platelet-poor plasma. The data set can be described thus: Thrombin generation assay (TGA). It is filed as biochemical. As to conditions: 70% human platelet-poor plasma, 37°C. As to the method:
The assay was performed with human platelet-poor plasma (70% final concentration) in buffer containing 20 mM HEPES (pH 7.4), 150 mM NaCl, and compound in DMSO (4% final concentration). The assay also contained phospholipids (approx. 3 μM) and Dade Innovin (1/5000 final dilution of stock). The reaction was triggered by the addition of a solution containing substrate (Z-GGR-AMC, 0.5 mM final concentration) and CaCl2 (15 mM final concentration). The reaction was then monitored kinetically by fluorescence (excitation 380 nm, emission 460 nm) at 37°C for 90 min.

Data set [2] relates to clotting of human platelet-poor plasma. As to conditions: 37°C. The method, then:
(§1) Both PT and aPTT assays were performed as recommended by the vendor (Diagnostica Stago). Briefly, citrated normal pooled human platelet-poor plasma was mixed with test compound (2% DMSO) at 37°C. Subsequently, either the aPTT assay reagent or PT assay reagent was added and mixed thoroughly. CaCl2 was then added to trigger the clotting process. The time for clot formation was measured in seconds and the test compound concentration to double the clotting time (CT2x) was determined.

Data set [3] shares this test system. Description: Activated partial thromboplastin time (aPTT) clotting assay. The format is biochemical. The settings on record: 37°C. As to the method:
as §1

The target in the next data set is Factor IXa (Homo sapiens, UniProt P00740). The data set can be described thus: Enzyme inhibition assay, substrate Spectrozyme.
Chain of Factor IXa (P00740 227-461 limits assumed): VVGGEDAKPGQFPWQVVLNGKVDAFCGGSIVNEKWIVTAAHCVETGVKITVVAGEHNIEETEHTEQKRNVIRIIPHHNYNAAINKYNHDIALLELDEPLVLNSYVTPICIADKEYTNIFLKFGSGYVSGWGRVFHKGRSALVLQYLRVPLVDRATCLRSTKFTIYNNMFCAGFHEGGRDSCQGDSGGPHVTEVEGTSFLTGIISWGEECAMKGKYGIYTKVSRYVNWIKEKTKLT
Chain of Factor IXa (P00740 47-191 partner limits assumed): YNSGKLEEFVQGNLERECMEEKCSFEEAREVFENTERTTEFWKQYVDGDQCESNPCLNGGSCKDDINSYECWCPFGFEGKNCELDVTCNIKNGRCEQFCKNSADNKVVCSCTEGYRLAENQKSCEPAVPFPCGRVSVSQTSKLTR
The target of another data set is Factor VIIa (Homo sapiens, UniProt P08709). Description: Enzyme inhibition assay, chromogenic substrate S-2238.
Chain of Factor VIIa (P08709 213-466 limits assumed): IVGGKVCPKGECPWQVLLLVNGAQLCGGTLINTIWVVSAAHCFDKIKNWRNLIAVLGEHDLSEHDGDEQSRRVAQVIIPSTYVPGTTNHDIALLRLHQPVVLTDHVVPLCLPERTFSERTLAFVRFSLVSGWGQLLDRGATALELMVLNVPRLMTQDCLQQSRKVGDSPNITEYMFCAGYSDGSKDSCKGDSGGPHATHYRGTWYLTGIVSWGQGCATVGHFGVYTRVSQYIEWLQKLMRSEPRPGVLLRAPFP
Chain of Factor VIIa (P08709 61-212 partner limits assumed): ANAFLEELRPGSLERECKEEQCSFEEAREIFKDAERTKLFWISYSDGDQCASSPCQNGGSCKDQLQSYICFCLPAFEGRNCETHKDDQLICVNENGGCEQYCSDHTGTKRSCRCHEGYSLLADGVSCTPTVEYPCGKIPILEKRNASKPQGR
Chain of Factor VIIa (P13726 33-295 partner): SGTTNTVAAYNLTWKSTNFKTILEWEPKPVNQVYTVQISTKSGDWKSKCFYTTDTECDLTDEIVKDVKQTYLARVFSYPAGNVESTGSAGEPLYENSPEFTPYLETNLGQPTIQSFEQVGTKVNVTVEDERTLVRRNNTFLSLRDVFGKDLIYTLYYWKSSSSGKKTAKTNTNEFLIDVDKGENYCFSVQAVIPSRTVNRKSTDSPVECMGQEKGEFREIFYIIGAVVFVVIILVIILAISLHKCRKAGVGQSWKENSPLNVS
For data set [4], the target named is T1, Factor Xa (Homo sapiens, UniProt P00742). Description: Enzyme inhibition assay, chromogenic substrate S-2765.
T1 sequence (P00742 235-488 limits assumed): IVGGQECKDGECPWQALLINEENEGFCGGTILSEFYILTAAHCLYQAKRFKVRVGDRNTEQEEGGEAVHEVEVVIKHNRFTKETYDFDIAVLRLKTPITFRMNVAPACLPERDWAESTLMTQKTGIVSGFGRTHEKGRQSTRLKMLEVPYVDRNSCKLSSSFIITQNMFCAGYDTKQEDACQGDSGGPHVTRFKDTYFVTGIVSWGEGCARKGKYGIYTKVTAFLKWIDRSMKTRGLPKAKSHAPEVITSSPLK
T1 sequence (P00742 41-179 partner limits assumed): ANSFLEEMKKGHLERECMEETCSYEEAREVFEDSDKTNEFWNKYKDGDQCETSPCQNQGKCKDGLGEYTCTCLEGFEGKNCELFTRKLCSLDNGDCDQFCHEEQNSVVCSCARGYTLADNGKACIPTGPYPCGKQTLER
For data set [5], the target named is T2, Factor XIa (Homo sapiens, UniProt P03951). The data set can be described thus: Enzyme inhibition assay, chromogenic substrate S-2366.
T2 sequence (P03951 388-625 limits assumed): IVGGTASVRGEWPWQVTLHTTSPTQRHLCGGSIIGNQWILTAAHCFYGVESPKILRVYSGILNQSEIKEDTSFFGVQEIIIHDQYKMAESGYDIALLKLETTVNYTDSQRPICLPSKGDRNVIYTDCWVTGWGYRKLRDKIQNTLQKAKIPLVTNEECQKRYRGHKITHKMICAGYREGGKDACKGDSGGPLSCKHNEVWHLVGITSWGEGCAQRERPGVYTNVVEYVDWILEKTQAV
T2 sequence (P03951 19-387 partner limits assumed): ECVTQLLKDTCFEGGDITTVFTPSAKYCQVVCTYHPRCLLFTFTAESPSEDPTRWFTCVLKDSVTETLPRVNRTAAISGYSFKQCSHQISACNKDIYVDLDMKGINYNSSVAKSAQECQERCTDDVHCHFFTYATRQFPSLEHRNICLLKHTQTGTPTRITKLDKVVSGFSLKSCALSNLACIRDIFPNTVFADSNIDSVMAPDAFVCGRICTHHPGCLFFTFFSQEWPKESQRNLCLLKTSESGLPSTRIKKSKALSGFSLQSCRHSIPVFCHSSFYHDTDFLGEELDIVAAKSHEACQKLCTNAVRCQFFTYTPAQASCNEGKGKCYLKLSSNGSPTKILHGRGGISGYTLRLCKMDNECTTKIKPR
A further data set deals with T3, Factor XIIa (Homo sapiens, UniProt P00748).
T3 sequence (P00748 373-615 limits assumed): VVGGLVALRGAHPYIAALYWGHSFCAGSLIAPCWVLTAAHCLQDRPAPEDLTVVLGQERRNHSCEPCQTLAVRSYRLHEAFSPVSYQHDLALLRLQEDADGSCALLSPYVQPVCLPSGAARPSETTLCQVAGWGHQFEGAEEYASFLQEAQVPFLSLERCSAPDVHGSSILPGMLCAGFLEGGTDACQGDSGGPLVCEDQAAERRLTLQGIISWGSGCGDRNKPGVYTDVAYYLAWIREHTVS
T3 sequence (P00748 20-372 partner limits assumed): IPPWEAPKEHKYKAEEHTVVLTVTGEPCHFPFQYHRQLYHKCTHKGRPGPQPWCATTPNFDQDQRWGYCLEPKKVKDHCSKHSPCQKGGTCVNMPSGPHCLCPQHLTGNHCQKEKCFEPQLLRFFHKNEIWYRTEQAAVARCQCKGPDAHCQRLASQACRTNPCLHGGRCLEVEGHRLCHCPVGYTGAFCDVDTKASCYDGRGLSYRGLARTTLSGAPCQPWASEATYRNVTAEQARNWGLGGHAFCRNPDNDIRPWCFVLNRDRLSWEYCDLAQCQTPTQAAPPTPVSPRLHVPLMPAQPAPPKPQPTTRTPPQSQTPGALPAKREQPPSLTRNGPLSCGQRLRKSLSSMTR
Description: Enzyme inhibition assay, chromogenic substrate S-2302.

The target of another data set is aPC (Homo sapiens, UniProt P04070). Description: Enzyme inhibition assay, chromogenic substrate S-2366.
Chain of aPC (P04070 212-450 limits assumed): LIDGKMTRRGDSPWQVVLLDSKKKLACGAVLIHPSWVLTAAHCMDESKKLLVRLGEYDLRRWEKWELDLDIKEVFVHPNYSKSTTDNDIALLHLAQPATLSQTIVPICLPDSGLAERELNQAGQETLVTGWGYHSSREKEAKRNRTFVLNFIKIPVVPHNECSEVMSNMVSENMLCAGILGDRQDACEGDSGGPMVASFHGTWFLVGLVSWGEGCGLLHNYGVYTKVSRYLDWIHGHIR
Chain of aPC (P04070 43-197 partner limits assumed): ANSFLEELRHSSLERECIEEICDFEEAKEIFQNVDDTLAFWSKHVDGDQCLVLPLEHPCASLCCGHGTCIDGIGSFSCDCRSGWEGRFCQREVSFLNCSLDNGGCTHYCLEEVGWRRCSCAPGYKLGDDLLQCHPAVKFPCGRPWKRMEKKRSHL
Data set [6] concerns the target T4, Plasmin (Homo sapiens, UniProt P00747). Description: Enzyme inhibition assay, chromogenic substrate S-2251.
In data set [7] the target is T2, Factor XIa. Description: Progress curve kinetics experiments. It is filed as biochemical.
Description: (§3) The data for the initial time points, up to at least 65% reaction progress, were analyzed as described in Wakselman et al. [20].
The next data set can be described thus: Plasma stability assay. It is filed as in vitro ADME. As to conditions: 37°C, n = 2, read-out: Plasma stability t½. As to the method:
The compound at 20 μM (2% final DMSO concentration) was incubated with CD-1 mouse (Innovative Research), SD rat (Innovative research), or human plasma (George King BioMed) at 37°C for up to three hours. Aliquots were taken out at different time points and quenched in acetonitrile containing diclofenac (internal standard). The samples were then centrifuged and the supernatant was analyzed by UHPLC using a Kinetex 2.6 μm C18 (Phenomenex) column and a Shimadzu Nexera UHPLC. Verapamil was used as a positive control.

The nature of data set [8]: Liver microsome (LM) stability assay. It is filed as in vitro ADME. The settings on record: liver microsomes, NADPH, n = 2, read-out: LM stability t½. As to the method: Compound at 1 μM (0.5% final DMSO concentration) was incubated with a 0.5 mg/mL CD-1 mouse (Sigma), SD rat (Life Technologies), or human liver microsome (Life Technologies) in the presence of 1 mM NADPH at 37°C for up to one hour. Aliquots were taken out at different time points and quenched in acetonitrile containing diclofenac (internal standard). […] Verapamil was used as a positive control, and warfarin was used as a negative control.

Data set [9] can be described thus: Pharmacokinetics (PK) in CD-1 mice. As to conditions: male, CD-1, mouse, plasma, iv, 0.5 mg/kg.
Description: The test compound was injected intravenously (i.v.) into CD-1 mice at 0.5 mg/kg in formulation containing 5% DMA (dimethyl acetamide) 15% Solutol HS15 and 80% water. Animals were euthanized at predefined time points by CO2 inhalation and blood was collected in K2-EDTA vacutainers by cardiac puncture. The vials were then centrifuged to collect plasma. […] LC-MS was performed using a Luna Omega 1.6 μm Polar C18 (Phenomenex) column, a Shimadzu Nexera UHPLC, and a Sciex QTrap 5500 mass spectrometer. The PK parameters were calculated by non-compartmental analysis using Phoenix WinNonlin (Certara).
The target of data set [10] is T1, Factor Xa. Description: Progress curve kinetics experiments. The format is biochemical. On the set-up: purchased Haemtech Biopharma Services.
Description: as §3
In data set [11] the target is T4, Plasmin. The data set can be described thus: Progress curve kinetics experiments. It is filed as biochemical. On the set-up: purchased Haemtech Biopharma Services. As to the method:
The data for the initial time points, up to at least 65% reaction progress, were analyzed as described in Wakselman et al..
Thus, when fitting to Eq (3), the extracted values kobs for each well were plotted against the modified inhibitor concentration [I]′0=(1−α)[I]0. (6)
For the experiments presented in this paper, n = 2 and the mean and standard deviation are reported for each parameter.

Data set [12] is described as follows: Control sample in buffer in the absence of thrombin. The settings on record: 50 mM Tris pH 7.4, 100 mM NaCl, 0.2% PEG 8000, up to overnight.
Description: The reaction was then quenched with acetonitrile and centrifuged at 4°C, 1000x RCF, for 10 min to pellet the protein. […] Quantification of the compounds was performed by LC-MS using a Shimadzu Nexera X2 UPLC system coupled with a Sciex QTrap 5500. Chromatography was performed on a LunaOmega Polar C18 analytical column (1.6 μm, 50 x 2.1 mm). The mobile phases were 0.025% formic acid in water and 0.025% formic acid in acetonitrile.
A further data set concerns the target T5, WT human α-thrombin (Homo sapiens, UniProt P00734).
T5 construct: made in house; host or cells: E. coli
The data set can be described thus: Binding of a dansyl probe to thrombin (tryptophan fluorescence). The settings on record: 1 μM compound, 80 nM thrombin, excitation 280 nm, emission 340 nm. As to the method: (§2) Compound 2 at 1 μM was incubated with WT human α-thrombin (80 nM) or the active site mutant protein S195A at room temperature for 10 min. Then, fluorescence measurements (excitation 280 nm, emission 340 nm) were recorded in kinetic mode.

In the next data set the target is T6, thrombin mutant S195A (Homo sapiens, UniProt P00734, S568A).
T6 construct: made in house; host or cells: E. coli
Described as above. As to conditions: 1 μM compound, excitation 280 nm, emission 340 nm. The method, then:
as §2

A further data set concerns the target thrombin (Homo sapiens, UniProt P00734). The data set can be described thus: Enzyme inhibition assay, chromogenic substrate S-2238.
The mark [13] stands for this setting: read-out: Cmax EC50 (peak height).
Where [14] appears, read: read-out: ETP EC50 (endogenous thrombin potential).

Like-named read-outs stand apart in the source and are kept apart here.

T4 sequence (P00747 581-810 limits assumed, species assumed): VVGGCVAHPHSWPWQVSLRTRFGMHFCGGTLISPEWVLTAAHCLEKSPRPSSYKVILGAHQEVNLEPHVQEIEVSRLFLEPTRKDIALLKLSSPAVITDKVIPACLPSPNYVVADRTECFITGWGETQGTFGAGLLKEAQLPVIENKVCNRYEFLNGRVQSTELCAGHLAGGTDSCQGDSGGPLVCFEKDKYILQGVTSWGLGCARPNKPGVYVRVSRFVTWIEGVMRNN
T4 sequence (P00747 97-580 partner limits assumed, species assumed): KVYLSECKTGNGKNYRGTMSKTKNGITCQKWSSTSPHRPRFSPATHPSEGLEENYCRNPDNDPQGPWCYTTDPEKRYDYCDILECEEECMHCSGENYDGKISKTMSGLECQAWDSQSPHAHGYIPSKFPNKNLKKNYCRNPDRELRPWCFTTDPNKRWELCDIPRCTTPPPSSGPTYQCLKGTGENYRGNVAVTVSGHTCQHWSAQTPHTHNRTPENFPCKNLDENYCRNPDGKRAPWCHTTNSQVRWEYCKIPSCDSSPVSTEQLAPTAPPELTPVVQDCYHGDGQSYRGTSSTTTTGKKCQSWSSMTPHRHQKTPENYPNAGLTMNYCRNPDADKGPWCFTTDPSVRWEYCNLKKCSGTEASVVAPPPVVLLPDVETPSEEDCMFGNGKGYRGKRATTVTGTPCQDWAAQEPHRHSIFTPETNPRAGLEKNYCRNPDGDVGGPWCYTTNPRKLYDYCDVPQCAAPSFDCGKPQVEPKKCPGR

As a reminder, the IC50 is the concentration that inhibits the measured activity by half. Lower therefore signals inhibition by little substance. As a reminder, the EC50 is the concentration that produces a half-maximal response. Take `CC1CNc2c(cccc2S(=O)(=O)N[C@@H](CCCNC(=N)N)C(=O)N2CC[C@@H](C)C[C@@H]2C(=O)O)C1` (some centres unmarked) [Argatroban]: the IC50 at Trypsin, against Factor IXa, against Factor VIIa, on Factor Xa [4], on Factor XIa [5] and against Factor XIIa was > 50 µM throughout. Also, the 50% inhibitory concentration (IC50) at aPC and on Plasmin [6] was > 50 µM throughout. Also, the EC50 was 0.27 ± 0.05 µM in [1] (setting [13]) and 0.34 ± 0.11 µM in [1] (setting [14]). In addition, the “CT2x in PT assay (concentration to double the clotting time)” value in [2] worked out at 0.60 ± 0.14 µM. Also, the “CT2x in aPTT assay (concentration to double the clotting time)” value in data set [3] was 0.27 ± 0.15 µM.
In general, Ki refers to a dissociation constant, usually derived from enzyme kinetics or from competition with a known ligand. Low readings indicate tighter binding, high ones weaker binding. In general, AUC refers to the area under the concentration-time curve, a measure of exposure. As a reminder, the Vd is the apparent volume that relates the amount in the body to the concentration in plasma or blood. High values mean wide distribution into tissue, low ones little distribution into tissue. Broadly, the clearance is the rate of elimination divided by the concentration. Consider `COc1ccccc1C(=O)n1nc(C2CCNCC2)c(F)c1NCc1ccc(Cl)s1` [Compound 1], for which the Ki at Factor XIa [7] is 5.5 ± 4 µM; at Factor Xa [10] it was 94 ± 57 µM; at Plasmin [11], 0.8 ± 0.6 µM. In [3], the “CT2x in aPTT assay (concentration to double the clotting time)” value was > 100 µM. Besides, the half-life at 20 μM in “Plasma stability assay” (CD-1 mouse plasma) is 14 ± 1 min; in “Plasma stability assay” (Human plasma) it was 89 ± 9 min; in “Plasma stability assay” (SD rat plasma) it was 25 min. Moreover, the half-life at 1 μM turned out to be 20 ± 2 min in [8] (CD-1 mouse liver microsome 0.5 mg/mL), 110 min in [8] (Human liver microsome 0.5 mg/mL) and 8 ± 1.6 min in [8] (SD rat liver microsome 0.5 mg/mL). Besides, the AUC in [9] worked out at 88 ng·h/mL. In [9], this compound registered a C0 of 260 ng/mL. In addition, the Vd in [9] is 30 L/kg. In data set [9], the clearance was 183 mL/min/kg. This compound had a half-life in [9] of 114 min. Also, the IC50 against Factor IXa was > 50 µM; against Factor VIIa, 13.8 ± 2.8 µM; against Factor Xa [4] it was 8.3 ± 3.4 µM; on Factor XIa [5] it was 2.8 ± 0.2 µM; against Factor XIIa, > 50 µM; on aPC it was > 50 µM. Also, half-maximal inhibition against Plasmin [6] (IC50) required 0.7 ± 0.15 µM. Moreover, the “stability in buffer in the absence of thrombin” value in data set [12] was “stable over the entire course of the experiment”.
Turning to `CN(C)c1cccc2c(S(=O)(=O)Nc3ccc(C(=O)n4nc(C5CCNCC5)c(F)c4NCc4ccc(Cl)s4)cc3)cccc12` [Compound 2], the “change of tryptophan fluorescence on incubation with thrombin WT” value at WT human α-thrombin is “time-dependent change in the fluorescence intensity at 340 nm”. Moreover, at thrombin mutant S195A, the “change of tryptophan fluorescence on addition to thrombin S195A” value was “failed to produce any change in fluorescence”. Further, on thrombin, 0.08 µM corresponded to half-maximal inhibition (IC50).
As for `Fc1c(C2CCNCC2)n[nH]c1NCc1ccc(Cl)s1` [Compound 3], in [1], the “Tmax EC2x (concentration necessary to shift the time to peak 2-fold)” value is > 100 µM. In addition, the EC50 in data set [1] (setting [13]) and in data set [1] (setting [14]) was > 100 µM each time. In addition, at thrombin, the 50% inhibitory concentration (IC50) was > 100 µM.
With `[H]/N=C(/N)c1ccc(NCc2nc3cc(C(=O)N(CCC(=O)O)c4ccccn4)ccc3n2C)cc1` [Dabigatran], the concentration for a half-maximal effect (EC50) in [1] (setting [13]) came to 0.24 ± 0.08 µM; in [1] (setting [14]) it was 0.21 ± 0.04 µM. In addition, the IC50 against Factor IXa was > 50 µM; against Factor VIIa it was 40.7 ± 13.3 µM; on Factor XIa [5], 4.2 ± 1.5 µM; on Factor XIIa, > 50 µM; at aPC, 41.3 ± 7.6 µM; on Plasmin [6] it was 8.4 ± 2.6 µM.
